Key:
Experiment in all cases: radiometric filter-binding kinase assay
[1] = molecular target: MAPKAPK5 (human) (UniProt Q8IW41)
[2] = molecular target: CAMKK2 (human) (UniProt Q96RR4)
[3] = molecular target: FGFR1 (human) (UniProt P11362)
[4] = molecular target: CSK (human) (UniProt P41240)
[5] = molecular target: IRAK4 (human) (UniProt Q9NWZ3)
[6] = molecular target: GSK3B (human) (UniProt P49841)
[7] = molecular target: HIPK3 (human) (UniProt Q9H422)
[8] = molecular target: STK11 CAB39 STRADA (human) (UniProt Q9Y376+Q7RTN6+Q15831)
[9] = molecular target: FLT1 (human) (UniProt P17948)
[10] = molecular target: MAPK11 (human) (UniProt Q15759)
[11] = test system: AKT2 (human), P31751 [S474D]
[12] = molecular target: MINK1 (human) (UniProt Q8N4C8)
[13] = molecular target: MAPK14 (human) (UniProt Q16539)
[14] = molecular target: TAOK1 (human) (UniProt Q7L7X3)
[15] = molecular target: CLK2 (human) (UniProt P49760)
[16] = molecular target: MELK (human) (UniProt Q14680)
[17] = molecular target: CSNK1D (human) (UniProt P48730)
[18] = molecular target: NTRK1 (human) (UniProt P04629)
[19] = molecular target: RPS6KA3 KD1 KD2 (human) (UniProt P51812)
[20] = molecular target: MAP3K1 (human) (UniProt Q13233)
[21] = molecular target: INSR (human) (UniProt P06213)
[22] = test system: LCK (mouse); conditions: accession and sequence are those of the human protein
[23] = molecular target: MAP3K7 TAB1 (human) (UniProt Q15750+O43318)
[24] = molecular target: BRSK1 (human) (UniProt Q8TDC3)
[25] = molecular target: SRC (human) (UniProt P12931)
[26] = molecular target: EPHA2 (human) (UniProt P29317)
[27] = test system: ROCK2 (rat); conditions: accession and sequence are those of the human protein
[28] = molecular target: MARK1 (human) (UniProt Q9P0L2)
[29] = molecular target: RIPK2 (human) (UniProt O43353)
[30] = molecular target: PRKCZ (human) (UniProt Q05513)
[31] = molecular target: DYRK3 (human) (UniProt O43781)
[32] = molecular target: JAK2 JH1 JH2 (human) (UniProt O60674)
[33] = molecular target: IGF1R (human) (UniProt P08069)
[34] = molecular target: HIPK1 (human) (UniProt Q86Z02)
[35] = molecular target: MAPK15 (human) (UniProt Q8TD08)

Sequence of CSNK1D (human) (P48730 whole entry, looked up): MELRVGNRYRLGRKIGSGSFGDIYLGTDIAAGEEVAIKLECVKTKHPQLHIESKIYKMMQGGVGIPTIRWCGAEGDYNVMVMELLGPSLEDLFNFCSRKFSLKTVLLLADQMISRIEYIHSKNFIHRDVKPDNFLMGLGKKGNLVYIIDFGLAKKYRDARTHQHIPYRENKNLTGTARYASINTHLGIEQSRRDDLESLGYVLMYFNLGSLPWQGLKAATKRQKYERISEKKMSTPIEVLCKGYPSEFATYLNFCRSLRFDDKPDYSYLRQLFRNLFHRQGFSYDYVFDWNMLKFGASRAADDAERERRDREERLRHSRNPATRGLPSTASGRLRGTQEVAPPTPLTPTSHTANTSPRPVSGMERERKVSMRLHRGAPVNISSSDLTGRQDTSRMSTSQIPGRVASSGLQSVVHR
Sequence of DYRK3 (human) (O43781 whole entry, looked up): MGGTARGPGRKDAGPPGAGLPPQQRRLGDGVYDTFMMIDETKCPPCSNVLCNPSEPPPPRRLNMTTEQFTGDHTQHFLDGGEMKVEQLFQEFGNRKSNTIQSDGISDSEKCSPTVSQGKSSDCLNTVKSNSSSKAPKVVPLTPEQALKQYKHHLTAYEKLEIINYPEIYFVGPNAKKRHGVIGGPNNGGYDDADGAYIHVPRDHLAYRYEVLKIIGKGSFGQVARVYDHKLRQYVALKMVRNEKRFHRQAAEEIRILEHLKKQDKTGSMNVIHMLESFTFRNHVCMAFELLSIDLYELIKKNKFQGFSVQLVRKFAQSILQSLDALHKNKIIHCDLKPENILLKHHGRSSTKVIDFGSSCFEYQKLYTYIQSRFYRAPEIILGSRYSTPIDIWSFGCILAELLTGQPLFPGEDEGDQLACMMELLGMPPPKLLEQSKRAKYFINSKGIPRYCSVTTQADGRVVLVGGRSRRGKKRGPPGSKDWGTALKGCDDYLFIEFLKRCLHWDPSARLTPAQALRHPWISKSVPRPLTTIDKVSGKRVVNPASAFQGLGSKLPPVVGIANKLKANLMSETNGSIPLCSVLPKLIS
Sequence of MARK1 (human) (Q9P0L2 whole entry, looked up): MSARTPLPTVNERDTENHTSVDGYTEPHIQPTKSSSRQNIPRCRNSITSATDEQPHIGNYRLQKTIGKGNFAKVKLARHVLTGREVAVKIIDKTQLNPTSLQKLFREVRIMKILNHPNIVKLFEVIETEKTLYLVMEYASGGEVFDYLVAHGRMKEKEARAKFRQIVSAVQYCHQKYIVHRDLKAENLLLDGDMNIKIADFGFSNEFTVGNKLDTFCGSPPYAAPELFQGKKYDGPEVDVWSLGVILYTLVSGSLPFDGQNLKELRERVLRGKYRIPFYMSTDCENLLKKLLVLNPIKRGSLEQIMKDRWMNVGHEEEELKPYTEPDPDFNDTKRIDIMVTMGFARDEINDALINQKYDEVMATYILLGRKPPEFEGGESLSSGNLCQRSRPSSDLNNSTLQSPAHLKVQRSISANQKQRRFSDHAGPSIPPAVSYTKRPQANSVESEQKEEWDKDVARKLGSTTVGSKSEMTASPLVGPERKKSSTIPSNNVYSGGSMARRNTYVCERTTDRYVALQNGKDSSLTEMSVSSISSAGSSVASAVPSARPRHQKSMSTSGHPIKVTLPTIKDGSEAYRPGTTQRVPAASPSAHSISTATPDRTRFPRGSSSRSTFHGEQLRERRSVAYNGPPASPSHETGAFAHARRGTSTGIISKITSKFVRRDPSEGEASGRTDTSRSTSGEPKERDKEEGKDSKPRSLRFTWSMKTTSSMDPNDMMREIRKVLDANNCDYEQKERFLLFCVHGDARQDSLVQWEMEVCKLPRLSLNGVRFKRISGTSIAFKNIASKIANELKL
Sequence of INSR (human) (P06213 whole entry, looked up): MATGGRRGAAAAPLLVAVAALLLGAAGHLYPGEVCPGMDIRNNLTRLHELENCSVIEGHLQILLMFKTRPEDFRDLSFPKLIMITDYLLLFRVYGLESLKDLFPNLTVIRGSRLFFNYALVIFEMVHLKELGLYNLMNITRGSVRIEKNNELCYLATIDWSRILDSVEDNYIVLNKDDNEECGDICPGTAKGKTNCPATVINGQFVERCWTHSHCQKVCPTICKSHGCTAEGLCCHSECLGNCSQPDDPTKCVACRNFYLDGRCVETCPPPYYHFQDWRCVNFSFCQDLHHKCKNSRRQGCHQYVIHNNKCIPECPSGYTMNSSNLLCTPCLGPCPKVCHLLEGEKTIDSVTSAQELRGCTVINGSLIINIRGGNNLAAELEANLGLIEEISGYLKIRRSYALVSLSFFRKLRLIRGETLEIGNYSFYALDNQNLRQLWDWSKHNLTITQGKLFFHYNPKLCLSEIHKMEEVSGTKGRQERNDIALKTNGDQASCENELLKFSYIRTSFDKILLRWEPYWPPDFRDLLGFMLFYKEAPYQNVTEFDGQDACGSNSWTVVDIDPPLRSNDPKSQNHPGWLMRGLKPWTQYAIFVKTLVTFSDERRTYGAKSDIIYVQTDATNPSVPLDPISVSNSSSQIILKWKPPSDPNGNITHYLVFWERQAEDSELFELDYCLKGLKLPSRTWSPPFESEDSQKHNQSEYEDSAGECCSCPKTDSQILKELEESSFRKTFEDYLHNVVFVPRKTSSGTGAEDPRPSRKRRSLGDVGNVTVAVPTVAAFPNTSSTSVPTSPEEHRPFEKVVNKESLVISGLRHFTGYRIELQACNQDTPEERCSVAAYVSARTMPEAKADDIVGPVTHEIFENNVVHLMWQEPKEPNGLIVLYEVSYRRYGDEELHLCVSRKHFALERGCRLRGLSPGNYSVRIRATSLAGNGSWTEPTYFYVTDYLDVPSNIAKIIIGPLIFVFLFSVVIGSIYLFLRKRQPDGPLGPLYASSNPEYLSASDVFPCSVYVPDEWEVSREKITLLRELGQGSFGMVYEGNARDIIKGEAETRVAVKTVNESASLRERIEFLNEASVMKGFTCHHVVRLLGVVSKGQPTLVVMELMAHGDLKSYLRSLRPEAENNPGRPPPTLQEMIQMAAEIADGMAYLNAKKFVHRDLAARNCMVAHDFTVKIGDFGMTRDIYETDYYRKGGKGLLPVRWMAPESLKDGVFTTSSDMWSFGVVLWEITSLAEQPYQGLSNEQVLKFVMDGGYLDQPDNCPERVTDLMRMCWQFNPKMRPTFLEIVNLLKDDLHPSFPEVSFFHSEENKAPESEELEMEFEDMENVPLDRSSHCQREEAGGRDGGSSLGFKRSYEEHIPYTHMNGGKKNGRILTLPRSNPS
Sequence of EPHA2 (human) (P29317 whole entry, looked up): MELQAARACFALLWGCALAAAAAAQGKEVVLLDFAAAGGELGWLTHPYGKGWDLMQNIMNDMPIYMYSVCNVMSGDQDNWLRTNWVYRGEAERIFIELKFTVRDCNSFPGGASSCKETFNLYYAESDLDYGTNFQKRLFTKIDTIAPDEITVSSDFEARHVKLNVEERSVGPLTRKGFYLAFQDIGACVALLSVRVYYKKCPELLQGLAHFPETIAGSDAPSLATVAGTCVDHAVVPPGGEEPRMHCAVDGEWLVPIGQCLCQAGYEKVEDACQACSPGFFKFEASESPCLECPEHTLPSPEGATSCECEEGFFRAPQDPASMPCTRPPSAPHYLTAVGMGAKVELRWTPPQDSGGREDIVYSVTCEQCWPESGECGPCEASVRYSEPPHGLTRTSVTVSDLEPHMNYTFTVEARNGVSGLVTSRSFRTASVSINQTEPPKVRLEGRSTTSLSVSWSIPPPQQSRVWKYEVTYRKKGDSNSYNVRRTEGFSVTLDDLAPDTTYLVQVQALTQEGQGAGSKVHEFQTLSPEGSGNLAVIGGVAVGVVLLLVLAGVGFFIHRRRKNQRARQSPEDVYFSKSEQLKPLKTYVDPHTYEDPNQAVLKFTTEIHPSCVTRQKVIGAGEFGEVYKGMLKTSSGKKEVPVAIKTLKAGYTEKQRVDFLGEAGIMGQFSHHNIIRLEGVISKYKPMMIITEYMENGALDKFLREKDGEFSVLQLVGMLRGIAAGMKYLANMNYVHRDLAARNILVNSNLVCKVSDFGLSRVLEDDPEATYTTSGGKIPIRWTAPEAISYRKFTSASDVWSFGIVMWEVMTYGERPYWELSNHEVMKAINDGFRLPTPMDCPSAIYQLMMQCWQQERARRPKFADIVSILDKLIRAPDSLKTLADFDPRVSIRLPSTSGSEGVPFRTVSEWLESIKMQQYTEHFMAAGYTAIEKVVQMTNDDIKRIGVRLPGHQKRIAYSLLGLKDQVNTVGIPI
Sequence of BRSK1 (human) (Q8TDC3 whole entry, looked up): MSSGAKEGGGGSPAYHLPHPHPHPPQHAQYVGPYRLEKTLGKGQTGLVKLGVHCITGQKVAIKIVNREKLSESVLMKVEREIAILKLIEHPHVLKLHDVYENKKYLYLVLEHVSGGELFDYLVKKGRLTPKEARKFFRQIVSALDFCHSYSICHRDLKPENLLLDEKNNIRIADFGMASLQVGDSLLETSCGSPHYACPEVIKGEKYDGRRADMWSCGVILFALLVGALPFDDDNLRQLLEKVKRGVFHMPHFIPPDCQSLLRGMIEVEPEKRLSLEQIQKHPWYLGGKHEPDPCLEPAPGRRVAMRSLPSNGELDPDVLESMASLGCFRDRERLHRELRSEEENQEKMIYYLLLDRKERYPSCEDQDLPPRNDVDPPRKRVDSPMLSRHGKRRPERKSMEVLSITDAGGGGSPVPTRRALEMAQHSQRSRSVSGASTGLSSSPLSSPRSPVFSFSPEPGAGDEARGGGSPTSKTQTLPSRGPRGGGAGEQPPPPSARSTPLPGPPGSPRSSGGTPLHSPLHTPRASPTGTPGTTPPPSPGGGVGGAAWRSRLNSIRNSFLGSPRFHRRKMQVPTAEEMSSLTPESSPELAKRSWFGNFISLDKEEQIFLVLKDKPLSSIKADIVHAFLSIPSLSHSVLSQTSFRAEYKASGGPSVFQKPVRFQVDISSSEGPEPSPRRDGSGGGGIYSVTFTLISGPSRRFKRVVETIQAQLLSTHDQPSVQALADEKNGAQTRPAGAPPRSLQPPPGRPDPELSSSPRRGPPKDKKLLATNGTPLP

Structure (SMILES): N#Cc1c(C2CCNCC2)cc(-c2c(O)cccc2OCC2CC2)nc1N
- residual activity ([1]; compound 1.0 µM): 90%
- residual activity ([1]; compound 10.0 µM): 88%
- residual activity ([2]; compound 1.0 µM): 106%
- residual activity ([2]; compound 10.0 µM): 57%
- residual activity ([3]; compound 1.0 µM): 97%
- residual activity ([3]; compound 10.0 µM): 72%
- residual activity ([4]; compound 1.0 µM): 83%
- residual activity ([4]; compound 10.0 µM): 74%
- residual activity ([5]; compound 1.0 µM): 124%
- residual activity ([5]; compound 10.0 µM): 70%
- residual activity ([6]; compound 1.0 µM): 80%
- residual activity ([6]; compound 10.0 µM): 73%
- residual activity ([7]; compound 1.0 µM): 129%
- residual activity ([7]; compound 10.0 µM): 79%
- residual activity ([8]; compound 1.0 µM): 78%
- residual activity ([8]; compound 10.0 µM): 65%
- residual activity ([9]; compound 1.0 µM): 101%
- residual activity ([9]; compound 10.0 µM): 53%
- residual activity ([10]; compound 1.0 µM): 88%
- residual activity ([10]; compound 10.0 µM): 71%
- residual activity ([11]; compound 1.0 µM): 85%
- residual activity ([11]; compound 10.0 µM): 62%
- residual activity ([12]; compound 1.0 µM): 66%
- residual activity ([12]; compound 10.0 µM): 52%
- residual activity ([13]; compound 1.0 µM): 102%
- residual activity ([13]; compound 10.0 µM): 91%
- residual activity ([14]; compound 1.0 µM): 77%
- residual activity ([14]; compound 10.0 µM): 57%
- residual activity ([15]; compound 1.0 µM): 43%
- residual activity ([15]; compound 10.0 µM): 7%
- residual activity ([16]; compound 1.0 µM): 88%
- residual activity ([16]; compound 10.0 µM): 29%
- residual activity ([17]; compound 1.0 µM): 86%
- residual activity ([17]; compound 10.0 µM): 78%
- residual activity ([18]; compound 1.0 µM): 68%
- residual activity ([18]; compound 10.0 µM): 20%
- residual activity ([19]; compound 1.0 µM): 39%
- residual activity ([19]; compound 10.0 µM): 11%
- residual activity ([20]; compound 1.0 µM): 62%
- residual activity ([20]; compound 10.0 µM): 50%
- residual activity ([21]; compound 1.0 µM): 51%
- residual activity ([21]; compound 10.0 µM): 33%
- residual activity ([22]; compound 1.0 µM): 82%
- residual activity ([22]; compound 10.0 µM): 33%
- residual activity ([23]; compound 1.0 µM): 73%
- residual activity ([23]; compound 10.0 µM): 39%
- residual activity ([24]; compound 1.0 µM): 107%
- residual activity ([24]; compound 10.0 µM): 58%
- residual activity ([25]; compound 1.0 µM): 89%
- residual activity ([25]; compound 10.0 µM): 68%
- residual activity ([26]; compound 1.0 µM): 99%
- residual activity ([26]; compound 10.0 µM): 78%
- residual activity ([27]; compound 1.0 µM): 88%
- residual activity ([27]; compound 10.0 µM): 61%
- residual activity ([28]; compound 1.0 µM): 88%
- residual activity ([28]; compound 10.0 µM): 95%
- residual activity ([29]; compound 1.0 µM): 80%
- residual activity ([29]; compound 10.0 µM): 57%
- residual activity ([30]; compound 1.0 µM): 88%
- residual activity ([30]; compound 10.0 µM): 76%
- residual activity ([31]; compound 1.0 µM): 84%
- residual activity ([31]; compound 10.0 µM): 40%
- residual activity ([32]; compound 1.0 µM): 27%
- residual activity ([32]; compound 10.0 µM): 4%
- residual activity ([33]; compound 1.0 µM): 86%
- residual activity ([33]; compound 10.0 µM): 35%
- residual activity ([34]; compound 1.0 µM): 113%
- residual activity ([34]; compound 10.0 µM): 62%
- residual activity ([35]; compound 1.0 µM): 59%
- residual activity ([35]; compound 10.0 µM): 9%

Structure (SMILES): COc1cc2ncn(-c3cc(OCc4ccccc4S(C)(=O)=O)c(C#N)s3)c2cc1OC
- residual activity ([1]; compound 1.0 µM): 101%
- residual activity ([2]; compound 1.0 µM): 112%
- residual activity ([2]; compound 10.0 µM): 86%
- residual activity ([3]; compound 1.0 µM): 49%
- residual activity ([3]; compound 10.0 µM): 49%
- residual activity ([4]; compound 1.0 µM): 81%
- residual activity ([4]; compound 10.0 µM): 74%
- residual activity ([5]; compound 1.0 µM): 13%
- residual activity ([5]; compound 10.0 µM): 6%
- residual activity ([6]; compound 1.0 µM): 90%
- residual activity ([6]; compound 10.0 µM): 68%
- residual activity ([7]; compound 1.0 µM): 102%
- residual activity ([7]; compound 10.0 µM): 61%
- residual activity ([8]; compound 1.0 µM): 80%
- residual activity ([8]; compound 10.0 µM): 62%
- residual activity ([9]; compound 1.0 µM): 15%
- residual activity ([9]; compound 10.0 µM): 23%
- residual activity ([10]; compound 1.0 µM): 103%
- residual activity ([11]; compound 1.0 µM): 72%
- residual activity ([11]; compound 10.0 µM): 98%
- residual activity ([12]; compound 1.0 µM): 5%
- residual activity ([12]; compound 10.0 µM): 1%
- residual activity ([13]; compound 1.0 µM): 91%
- residual activity ([13]; compound 10.0 µM): 85%
- residual activity ([14]; compound 1.0 µM): 61%
- residual activity ([14]; compound 10.0 µM): 27%
- residual activity ([15]; compound 10.0 µM): 18%
- residual activity ([16]; compound 1.0 µM): 84%
- residual activity ([16]; compound 10.0 µM): 59%
- residual activity ([17]; compound 1.0 µM): 89%
- residual activity ([17]; compound 10.0 µM): 91%
- residual activity ([18]; compound 1.0 µM): 30%
- residual activity ([18]; compound 10.0 µM): 28%
- residual activity ([19]; compound 1.0 µM): 82%
- residual activity ([19]; compound 10.0 µM): 57%
- residual activity ([20]; compound 1.0 µM): 77%
- residual activity ([20]; compound 10.0 µM): 54%
- residual activity ([21]; compound 1.0 µM): 104%
- residual activity ([21]; compound 10.0 µM): 105%
- residual activity ([22]; compound 1.0 µM): 35%
- residual activity ([22]; compound 10.0 µM): 33%
- residual activity ([23]; compound 1.0 µM): 100%
- residual activity ([23]; compound 10.0 µM): 70%
- residual activity ([24]; compound 1.0 µM): 40%
- residual activity ([25]; compound 1.0 µM): 57%
- residual activity ([25]; compound 10.0 µM): 64%
- residual activity ([26]; compound 1.0 µM): 66%
- residual activity ([26]; compound 10.0 µM): 53%
- residual activity ([27]; compound 1.0 µM): 93%
- residual activity ([27]; compound 10.0 µM): 61%
- residual activity ([28]; compound 1.0 µM): 33%
- residual activity ([28]; compound 10.0 µM): 31%
- residual activity ([29]; compound 1.0 µM): 14%
- residual activity ([29]; compound 10.0 µM): 6%
- residual activity ([30]; compound 1.0 µM): 97%
- residual activity ([30]; compound 10.0 µM): 95%
- residual activity ([31]; compound 1.0 µM): 75%
- residual activity ([31]; compound 10.0 µM): 82%
- residual activity ([32]; compound 1.0 µM): 34%
- residual activity ([32]; compound 10.0 µM): 18%
- residual activity ([33]; compound 1.0 µM): 89%
- residual activity ([33]; compound 10.0 µM): 92%
- residual activity ([34]; compound 10.0 µM): 58%
- residual activity ([35]; compound 1.0 µM): 65%
- residual activity ([35]; compound 10.0 µM): 15%

Source: the kinase profiling compilation of Christmann-Franck et al. (2016)
